Test results from patent US20090005437A1, “Alpha-Ketoglutarates and Their Use as Therapeutic Agents” (priority 2004, published 2009).

What was measured:
PHD = PHD activity in cells co-expressing GFP-ODD fusion protein and HA-pVHL (GFP fluorescence, western blot); format: cell-based, human
HIF-1α = HIF-1α levels in cells incubated with DMS under normoxic conditions (western blot); format: cell-based; conditions: 20 mM, 48 hours
From the text: Protein analyses. […] Following SDS-PAGE, proteins were blotted onto nitrocellulose and analyzed with the following antibodies: anti-HIF-1α (BD Biosciences), anti-HA (Roche), anti-GFP (BD Biosciences) or anti-Actin (Sigma).

HIF1α [1] = experiment: HIF1α levels in HEK293 cells in which HIF1α was induced by DMS (western blot); format: cell-based, human; conditions: HEK293, DMS 24 hours, then ester 3 hours
HIF1α [2] = experiment: HIF1α induction in SDH-inhibited cells transfected with Di3 shRNA (western blot); format: cell-based; conditions: 24 hour treatment
HEK293 cells = experiment: Measurement of intracellular α-ketoglutarate (glutamate dehydrogenase assay); format: cell-based, human; conditions: 1 mM, 5 hours
[3] = test system: cells under hypoxic conditions; experiment: Cell death of cells grown under hypoxic conditions (0.5% oxygen)
[4] = test system: PHD (HIFα prolyl hydroxylase); experiment: In vitro PHD activity (hydroxylation of in vitro-translated HA-ODDD by cell extracts, gel shift on SDS-PAGE); format: biochemical, human

SMILES: [Cl-].[Cl-].[Co+2] [CoCl2]
- GFP-ODD levels (western blot) (PHD): increase in GFP-ODD levels

SMILES: COC(=O)CCC(=O)OC [DMS, dimethyl ester succinic acid]
- GFP fluorescence (PHD; 48 hours after treatment with DMS, 10% oxygen): increase in GFP fluorescence
- Level of GFP-ODD (western blot) (PHD; DMS alone, 48 hours): rose
- HIF-1α levels (western blot) (HIF-1α): elevated levels of HIF-1α

SMILES: O=C(O)CCC(=O)C(=O)OCc1cccc(C(F)(F)F)c1 [TFMB-α-ketoglutarate, 2-Oxopentanedioic acid 1-(3-trifluoromethyl-benzyl)ester]
- HIF1α protein levels after DMS induction (HIF1α [1]): substantially reduce the levels of HIF1α protein
- HIF1α induction observed with Di3 transfection (HIF1α [2]): reversed
- GFP fluorescence in DMS-treated cells (PHD): reduced GFP fluorescence

SMILES: O=C(O)CCC(=O)C(=O)O [free α-ketoglutaric acid, 2-Oxo-pentanedioic acid]
- Change of intracellular α-ketoglutarate above basal levels (HEK293 cells): no increase

SMILES: CCCCCCCCOC(=O)C(=O)CCC(=O)O [octyl-α-ketoglutarate, 2-Oxo-pentanedioic acid 1-octyl ester]
- Cell death under hypoxic conditions [3]: significant cell death
- HIF1α protein levels after DMS induction (HIF1α [1]): reversed DMS-induction of HIF1α completely
- HIF1α induction observed with Di3 transfection (HIF1α [2]): reversed
- GFP fluorescence in DMS-treated cells (PHD): reduced GFP fluorescence

SMILES: O=C(O)CCC(=O)O [succinate, succinic acid]
- PHD activity (appearance of non-hydroxylated HA-ODD) ([4]; HeLa cell extracts, succinate held constant at 1 mM): inhibition of PHD activity
- PHD activity in vitro (production of hydroxylated HA-ODDD, mobility on SDS-PAGE) ([4]; cell extracts with α-ketoglutarate, Fe2+, ascorbate, DFO 5 mM, succinate 0.1-5.0 mM): decrease in the production of hydroxylated HA-ODDD
- IC50 ([4]; read-out: IC50 for inhibition of PHD activity (HA-ODDD hydroxylation), cell extracts with α-ketoglutarate, Fe2+, ascorbate): 500 µM
